Experimental findings from patent publication US20230399313A1, “BIOLOGICAL ACTIVITIES OF 5-(2-(4-(4-FLUORO-2-METHYL-1H-INDOL-5-YLOXY)-6-METHOXYQUINOLIN-7-YLOXY)ETHYL)-5-AZASPIRO[2.4]-HEPTAN-7-OL CRYSTALLINE, PHOSPHORIC ACID SALT AND ITS ENANTIOMERS” (Advenchen Pharmaceuticals, LLC, priority 2022, published 2023) are described below.

≈ marks a conversion by molar mass, not a printed value.

One data set relates to BEL7404. Description: In vitro MTT (proliferation) assay. The class given is cell-based. The conditions noted are these: Homo sapiens, BEL-7404, BEL7404 cell line, ovary (so in the source). The protocol:
(§1) The inhibitions of Compound A-Xln, Compound A-P-Xln and two chiral isomers (Compound R-A, Compound S-A) to cancer cell lines are tested via in vitro MTT assay. Cancer cell lines are selected from PANC-1, NCI-H157, MDA-MB-231, Hela, PC-3, BEL7404, MKN45, Ishikawa, Saos-2, SKOV3, SW579 and HCT116 cell lines. The IC50 values are in the micromole scale.
(§2) In vitro MTT (proliferation) assay was performed with compound from above examples to give following inhibition results: […]

The subject of another data set is Ishikawa. Description: In vitro MTT (proliferation) assay. The conditions noted are these: Homo sapiens, Ishikawa cell line, endometrial. Format: cell-based. On the procedure:
as §1, §2

Another data set relates to HCT-116. Description: In vitro MTT (proliferation) assay. The class given is cell-based. The conditions noted are these: Homo sapiens, HCT116 cell line, colon, MTT, read-out: HCT116 IC50. The protocol: as §1, §2
The next data set relates to SW579. Description: In vitro MTT (proliferation) assay. The conditions noted are these: SW579 cell line, thyroid. The class given is cell-based. On the procedure:
as §1, §2

Another data set has as its system NCI-H157. Description: In vitro MTT (proliferation) assay. The class given is cell-based. The conditions noted are these: Homo sapiens, NCI-H157 cell line, lung. On the procedure: as §1, §2
For a further data set, the system named is SKOV3. Description: In vitro MTT (proliferation) assay. The class given is cell-based. The conditions noted are these: Homo sapiens, SK-OV-3; SKOV3 cell line, ovary; MTT; read-out: SKOV3 IC50. On the procedure:
as §1, §2

The next data set concerns Hela. Description: In vitro MTT (proliferation) assay. The conditions noted are these: Homo sapiens; Hela cell line, ovary (so in the source); MTT; read-out: Hela IC50. The class given is cell-based. On the procedure: as §1, §2
The subject of the next data set is MDA-MB-231. Description: In vitro MTT (proliferation) assay. The class given is cell-based. The conditions noted are these: Homo sapiens; MDA-MB-231 cell line, breast; MTT; read-out: MDA-MB-231 IC50. The protocol:
as §1, §2

The subject of the next data set is MKN45. Description: In vitro MTT (proliferation) assay. Format: cell-based. The conditions noted are these: Homo sapiens, MKN-45, MKN45 cell line, breast (so in the source). On the procedure:
as §1, §2

Another data set concerns PANC-1. Description: In vitro MTT (proliferation) assay. The conditions noted are these: Homo sapiens, PANC-1 cell line, pancreas. The class given is cell-based. The protocol:
as §1, §2

The test system of another data set is Saos-2. Description: In vitro MTT (proliferation) assay. The class given is cell-based. The conditions noted are these: Homo sapiens, Saos-2 cell line, sarcoma. On the procedure:
as §1, §2

The next data set deals with PC-3. Description: In vitro MTT (proliferation) assay. The class given is cell-based. The conditions noted are these: Homo sapiens, PC-3 cell line, prostate. On the procedure:
as §1, §2

A further data set in a line: Water solubility. The class given is physicochemical.
The nature of data set [1]: Stability of amorphous and crystalline form API at 60° C. (HPLC related substances). Format: physicochemical. The protocol:
The samples of amorphous and crystalline form API of Compound A were placed in clean containers and the environmental temperature was controlled at 60° C. The purity of amorphous (Compound A-Amp) and crystalline form (Compound A-Xln) of Compound A were tested at Day 0, Day 10 and Day 30. Samples of amorphous and crystalline form APIs were measured, and the appropriate amount of diluent was added to dissolve with sonication. The concentration was controlled at 0.2 mg/ml and the purification was determined by HPLC with UV detector at 230 nm. Results were listed in the table as follows and the fitted curve is in Drawing Sections as FIG. 6.

Setting [2] is: high temperature 60° C., 10 days.
The mark [3] stands for this setting: high temperature 60° C., 30 days.

Regarding `COc1cc2c(Oc3ccc4[nH]c(C)cc4c3F)ccnc2cc1OCCN1C[C@H](O)C2(CC2)C1` [Compound R-A], the IC50 (as a rule, the concentration at which inhibition is half-maximal) stood at 4060 nM in the data set with BEL7404; 4.61 µM with Ishikawa; 883 nM in the data set on HCT-116; 906 nM in the data set on SW579; 8.11 µM in the data set with NCI-H157; 3.71 µM in the data set on SKOV3. Besides, the 50% inhibitory concentration (IC50) was 6.69 µM with Hela; 9.6 µM with MDA-MB-231; 430 nM in the data set with MKN45; 5.64 µM in the data set with PANC-1; 3.08 µM in the data set on Saos-2; 2750 nM with PC-3.
For `COc1cc2c(Oc3ccc4[nH]c(C)cc4c3F)ccnc2cc1OCCN1CC(O)C2(CC2)C1` (stereo not shown) [Compound A-P, 5-(2-(4-(4-fluoro-2-methyl-1H-indol-5-yloxy)-6-methoxyquinolin-7-yloxy)ethyl)-5-azaspiro[2.4]-heptan-7-ol], the concentration in solution in “Water solubility” (solubility) came to 360 µg/mL (≈ 754 µM).
Regarding `COc1cc2c(Oc3ccc4[nH]c(C)cc4c3F)ccnc2cc1OCCN1CC(O)C2(CC2)C1` (stereo not shown) [Compound A-P-Xln, 5-(2-(4-(4-fluoro-2-methyl-1H-indol-5-yloxy)-6-methoxyquinolin-7-yloxy)ethyl)-5-azaspiro[2.4]-heptan-7-ol], the 50% inhibitory concentration (IC50) amounted to 1750 nM in the data set with BEL7404; 1.48 µM in the data set on Ishikawa; 934 nM in the data set with HCT-116; 880 nM in the data set on SW579; 1.61 µM in the data set with NCI-H157; 3.09 µM in the data set on SKOV3. For the same compound, the half-maximal inhibitory concentration (IC50) in the data set with Hela turned out to be 2.36 µM; with MDA-MB-231, 3.93 µM; in the data set on MKN45, 130 nM; in the data set on PANC-1 it was 2.75 µM; with Saos-2, 2.48 µM; in the data set with PC-3, 1770 nM.
Regarding `COc1cc2c(Oc3ccc4[nH]c(C)cc4c3F)ccnc2cc1OCCN1CC(O)C2(CC2)C1` (stereo not shown) [Compound A-Amp, 5-(2-(4-(4-fluoro-2-methyl-1H-indol-5-yloxy)-6-methoxyquinolin-7-yloxy)ethyl)-5-azaspiro[2.4]-heptan-7-ol], the “Maximum impurities (%)” value in data set [1] (0 day) was determined as 0.075%; in data set [1] (setting [2]), 0.191%; in data set [1] (setting [3]), 0.327%. The “Total impurities (%)” value in data set [1] (0 day) was 0.26%; in data set [1] (setting [2]), 0.323%; in [1] (setting [3]), 0.583%.
For the compound `COc1cc2c(Oc3ccc4[nH]c(C)cc4c3F)ccnc2cc1OCCN1C[C@@H](O)C2(CC2)C1` [Compound S-A], the half-inhibitory concentration (IC50) in the data set on BEL7404 is 2380 nM; in the data set with Ishikawa, 4.98 µM; with HCT-116, 980 nM; in the data set with SW579, 836 nM; in the data set on NCI-H157, 7 µM; in the data set with SKOV3, 7.65 µM. Moreover, the concentration for half-maximal inhibition (IC50) in the data set with Hela is 6.3 µM; with MDA-MB-231, 6.6 µM; with MKN45 it was 320 nM; in the data set with PANC-1, 5 µM; in the data set on Saos-2, 5.35 µM; in the data set on PC-3 it was 5600 nM.
